US11590092B2, “Skin probiotic” (The Regents of the University of California, priority 2014, dated 2023)
In brackets after ≈: the same amount, converted by molar mass. Entries after “also recorded” stand apart in the source; their conditions may differ.

How the values were obtained:
USA300 [1] = assay: In vivo skin wound infection with USA300; design: species or system ICR mice; conditions: for USA300 colonization / growth in the skin lesions: vs controls
Protocol: (§1) ICR mice (2-3-month-old female) were anesthetized by isoflurane. In each experiment, there were five mice per group. A wound 5 mm in length was made on the dorsal skin after shaving with electrical clippers. Once the skin wound was created, 5 μl of propionic acid (100 mM), PBS (pH 7.1) or PBS (pH 3.5) was applied topically to the wounded areas. The wounds were left uncovered throughout the experimental period. For bacterial infection, USA300 (2×10^6 CFU in PBS) was applied topically to the wounded areas 10 min after application of propionic acid or PBS. For the measurement of the extent of wound closure, a transparent parafilm was put on the top of the wounded skin. The wound area was marked on the parafilm by drawing an area which covered the whole skin wound. The lesion size was measured daily for 8 days was calculated using the ImageJ software [National Institutes of Health (NIH), Bethesda, Md., USA] and expressed as mm^2. Student's t-test was used to determine the significance of the differences between groups of the PBS (pH 7.1)- and propionic acid-treated mice as well as the PBS (pH 7.1)- and PBS (pH 3.5)-treated mice. Data represent the mean±SD from three independent experiments. All experiments using mice were conducted in a Biosafety Level 2 (BSL-2) facility and with accordance to institutional guidelines for animal experiments.
The USA300-infected skins treated with propionic acid and its controls were cross-sectioned, stained with hematoxylin and eosin (H&E) (Sigma, St. Louis, Mo.), and viewed on a Bx51 research microscope (Olympus, Melville, N.Y., USA). To determine the bacterial number in infected skin, the whole area of infected skin was excised 72 h after bacterial application. The excised skin was homogenized in 200 μl of sterile PBS with a hand tissue grinder. Bacterial CFUs in the skin were enumerated by plating serial dilutions (1:10^1-1:10^6) of the homogenate on a TSB agar plate. The plate was incubated for 24 h at 37° C. to count colonies.
ICR mice (2-3 month-old females; Harlan Labs, Placentia, Calif., USA) were anesthetized by isoflurane. A 5 mm wounds were made on the dorsal skin following shaving with electrical clippers. Following skin wounding, 5 μl of filter sterilized media obtained by incubating P. acnes (10^5 CFU/ml in 10 ml) with/without glycerol for 17 days or 5 μl of media with glycerol (control) were applied and to the wounded areas. To determine if propionic acid can prevent or mitigate the MRSA infection, 5 μl of 100 mM propionic acid was applied to the wounded areas. Application of PBS/pH (pH 3.5, corresponding to pH for 100 mM propionic acid) or PBS (pH 7.1) to the wounded areas served as controls. The wounds were left uncovered throughout the experimental period. USA300 (2×10^6 CFU in 5 μl PBS) was then applied to the wounds 10 min after application of various media, propionic acid or PBS controls. To measure the extent of wound closure, a transparent parafilm was placed over the wounded skin and the area was marked by outlining the area of the wound. The lesion size (mm^2) was measured daily for 8 days then calculated with ImageJ software (NIH, Bethesda, Md., USA). Five mice per group per experiments were used. A Student's t-test was used to determine the significance of the differences between groups. Data represent the mean±SD from three independent experiments. All experiments using mice were conducted in a biosafety level 2 (BSL-2) facility and in accordance with institutional guidelines for animal experiments. To determine the bacterial counts in infected skin, the infected skin was excised 72 h following bacterial application. The excised skin was weighted and homogenized in 200 μl of sterile PBS with a tissue grinder. Bacterial CFUs in the skin were enumerated by plating serial dilutions (1:10^1-1:10^6) of the homogenate on a TSB agar plate. The plate was incubated for 24 h at 37° C. to count colonies. […]

[2] = Skin wound healing without USA300 inoculation; type: in vivo, ICR mice; conditions: topical 100 mM propionic acid vs PBS (pH 7.1) and PBS/pH (pH 3.5), 8-day period
Protocol: as §1

E. coli = assay: Minimal bactericidal concentration test against E. coli; type: cell-based, Escherichia coli; conditions: MBC test
Protocol: (§2) To determine the minimal bactericidal concentration (MBC) and minimal fungicidal concentration (MFC) of propionic acid, microorganisms (10^6 colony forming units (cfu)/ml) were incubated overnight in media with propionic acid (1.25-2,000 mM) in a 96-well microplate (100 μl per well). The control only received PBS. After incubation, the microorganisms were diluted 1:10-1:10^6 into PBS. The dilutions (5 μl) were spotted onto agar media to count cfu; MBC/MFC were determined at 99.9% killing level. To determine the effect of pH on growth of S. aureus USA300, the bacterium was incubated in TSB at pH 5.8 and 6.8, and TSB with 25 mM propionic acid at pH 5.8 and 6.8 (buffered with 4-(2-hydroxyethyl)-1-piperazineethanesulfonic acid (HEPES)) in a 96-well microplate overnight before spotting onto agar plates.

[3] = test system: S. aureus strains ATCC29247 and CMCC(B)26003; assay: Inhibition of other S. aureus strains; type: cell-based, Staphylococcus aureus
USA300 [4] = assay: MBC assay against USA300; type: cell-based, Staphylococcus aureus
Protocol: To determine the MBC of propionic acid, USA300 (10^6 CFU/ml) were incubated with propionic acid at various concentrations (1.25-100 mM in PBS) as indicated in each individual experiment in media on a 96-well microplate (100 μl per well) overnight. The control received only PBS. After incubation, the bacteria were diluted 1:10-1:10^6 with PBS. […] To determine the pH effect on the bacterial growth, USA300 in TSB was incubated with 2.5 mM propionic acid on a 96-well microplate (100 μl per well) overnight before spotting on an agar plate.
To determine the minimal bactericidal concentration (MBC) and minimal fungicidal concentration (MFC) of propionic acid, microorganisms (10^6 colony forming units (cfu)/ml) were incubated overnight in media with propionic acid (1.25-2,000 mM) in a 96-well microplate (100 μl per well). The control only received PBS. After incubation, the microorganisms were diluted 1:10-1:10^6 into PBS. […]

C. albicans = assay: Minimal fungicidal concentration test against C. albicans; type: cell-based, Candida albicans; conditions: MBC/MFC test
Protocol: as §2

CCC(=O)O [propionic acid]
sizes of USA300-infected skin lesions (USA300 [1]; topical 100 mM propionic acid 10 min before USA300 (2×10^6 CFU), vs PBS): considerably decreased; also recorded: significantly reduced
bacterial numbers in USA300-infected lesions (USA300 [1]; topical 100 mM propionic acid, three days after bacterial application (FIG. 10F)): 6.9±0.7×10^7 CFU
bacterial numbers in USA300-infected lesions (USA300 [1]; topical 100 mM propionic acid, three days after bacterial application (FIG. 11F)): 1.4±1.4×10^7 CFU/g
histological observation (H&E) of inflammatory response in wounds (USA300 [1]; topical 100 mM propionic acid, vs PBS-treated wounds): less pronounced inflammatory response; also recorded: attenuated inflammatory response
USA300 colonization / growth in the skin lesions (USA300 [1]; topical 100 mM propionic acid): considerably decreased
USA300 colonization / growth in the skin lesions (USA300 [1]; topical 100 mM propionic acid, listed as Propionic acid): significantly decreased
changes in lesion sizes of wounds without USA300 inoculation [2]: not statistically different
concentration that completely killed E. coli (E. coli): ≥ 50 mM
concentration that effectively suppressed the growth of E. coli (E. coli): greater than 10 mM
inhibition of S. aureus strains besides USA300 [3]: inhibit
antimicrobial activity against USA300 (USA300 [4]; 25 mM): excellent antimicrobial activity
bacterial numbers of USA300 (USA300 [4]; 25 mM propionic acid (pH 5.8), 24 h, USA300 10^6 CFU): 4.9±0.2×10^4 CFU/ml
antimicrobial activity against USA300 after buffering (USA300 [4]; 25 mM propionic acid (pH 6.8) buffered with ammonium hydroxide): remained
concentration that completely killed USA300 (USA300 [4]; MBC test): greater than or equal to 100 mM
concentration that effectively suppressed the growth of USA300 (USA300 [4]; MBC test, more than 1 log10 reduction): greater than 25 mM
concentration that completely killed USA300 (USA300 [4]; MBC test, listed as Propionic acid): greater than 100 mM
MBC (USA300 [4]; Staphylococcus aureus, in TSB, USA300 10^6 CFU/ml, overnight): 25 mM (≈ 1850 µg/mL)
concentration for a complete growth inhibition of USA300 (USA300 [4]; dissolved in 4% dimethyl sufoxide, overnight): 100 Mm
MBC (>1 log10 inhibition) against USA300 (USA300 [4]; dissolved in 4% dimethyl sufoxide, overnight, 0-100 mM): 25 mM
concentration that completely killed C. albicans (C. albicans): greater than or equal to 25 mM
concentration that effectively suppressed the growth of C. albicans (C. albicans): greater than 10 mM
